Each structure is given as a SMILES string. Calls of active or inactive are those of the source.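 How the source made its calls: active means compounds giving half or more protection of infected cells from virus-caused growth loss, again on retest; inactive means the rest.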

The subject of the assay is CEM cells HIV-1 protection, formazan growth assay. As to the kind of experiment: NCI AIDS Antiviral Assay. Particulars: for IC50: measured here: growth of uninfected CEM cells. A digest of the protocol: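 Protection of CEM cells against HIV-1 measured as cell growth via soluble formazan read-out, with five concentrations tested on both infected and uninfected cells; failure to protect may reflect toxicity.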

As to `O=C(/N=N/C(=O)N1CCCCC1)N1CCCCC1`, the EC50 was more than 67.6 µM and the IC50 came out at 28.8 µM.
As for `CC1=NNC(=NCCN(C)C)C/C1=C/c1ccccc1Cl`, the result was inactive.
Consider `C/C(C=O)=N\Nc1cc(C)c2ccccc2n1`, for which the EC50 was more than 200 µM and the IC50 is 9.55 µM.
On the same counts, the results for `c1ccc(C2=Nc3ccccc3N=C3CCCC32)cc1` (stereo not drawn) are more than 200 µM and more than 200 µM.
Consider `COC(=O)[C@@H]1CN(C(=O)CCc2ccccc2)C(=O)N1`, for which the EC50 was more than 200 µM and the IC50 is more than 200 µM.
As to `O=C1OCc2c1cc1cc3c(cc1c2-c1ccc2c(c1)OCO2)OCO3`, the outcome was inactive.
As for `CN1CCCN2CCN(C)CCCN(CC1)CC2`, the EC50 was more than 977 µM and the IC50 was more than 977 µM.
For `Cc1cn(C2CC(N=[N+]=[N-])C(COC(=O)CCCCCCCCCCOc3ccc(I)cc3)O2)c(=O)[nH]c1=O` (stereo not drawn), the EC50 was 0.117 µM and the IC50 turned out to be 17.8 µM.
With `O=S1(=O)C(c2ccc(F)cc2)=C(O)c2cc3ccccc3nc21`, the outcome was inactive.
For `CC(C)C(O)(C(=O)OCN1C(=O)C2C3C=CC(C2C1=O)C1C2C(=O)N(COC(=O)C(O)(C(C)C)C(C)O)C(=O)C2C31)C(C)O` (stereo not drawn), the EC50 is more than 200 µM and the IC50 is more than 200 µM.
In the case of `CCCCCC=C(c1cc(Cl)c(OC)c(C(N)=O)c1)c1cc(Cl)c(OC)c(C(N)=O)c1`, the EC50 was 1.82 µM and the IC50 is 15.8 µM.
On the same counts, the results for `C=CCC1C(O[Si](C)(C)C(C)(C)C)C(CO[Si](C)(C)C(C)(C)C)OC1n1ccc(=O)[nH]c1=O` (stereo not drawn) are more than 200 µM and 2.75 µM.
`CCCCCCCCCCNc1nc(F)nc(Nc2cc3ccc(OC)cc3oc2=O)n1`: the EC50 is more than 39.8 µM and the IC50 is 7.08 µM.
On the same counts, the results for `CC(C)(CCCCC(C)(C)NC(=O)Nc1ccc(Cl)c(Cl)c1)NC(=O)Nc1ccc(Cl)c(Cl)c1` are more than 200 µM and 8.91 µM.
On the same counts, the results for `COC1/C=C\C=C(/C)C(=O)NC2=CC(=O)C(N)=C(CC(C)CC(OC)C(O)C(C)C=C(C)C1OC(N)=O)C2=O` (stereo not drawn) are more than 2 µM and 0.0661 µM.
On the same counts, the results for `Nc1c(-c2nc3ccccc3s2)c2ccc([N+](=O)[O-])cc2c(=O)n1-c1cccc(C(=O)O)c1` are 7.76 µM and 37.2 µM.
`COc1ccc2nc(N/N=C/c3ccc(C)s3)cc(C)c2c1`: the EC50 is more than 200 µM and the 50% inhibitory concentration (IC50) is 12.9 µM.
In the same order, the values of `O=C1CSC(c2c[nH]c3ccccc23)N1c1cccc([N+](=O)[O-])c1` (stereo not drawn) are more than 200 µM and 21.9 µM.
In the same order, the values of `CCOC1(OCC)C2C=CC1C(COS(=O)(=O)c1ccc(C)cc1)C2COS(=O)(=O)c1ccc(C)cc1` (stereo not drawn) are more than 200 µM and 14.1 µM.
On the same counts, the results for `COc1ccc(C2CCC(=O)CC2C(=O)O)cc1` (stereo not drawn) are more than 417 µM and more than 417 µM.
As to `CC1C2C=C(O)C(=O)C(C2=O)C1c1ccccc1` (stereo not drawn), the EC50 was more than 741 µM and the IC50 was found to be 141 µM.
On the same counts, the results for `CCCCC1Sc2cc(OC)cc(N)c2NC1=O` (stereo not drawn) are more than 200 µM and 158 µM.
On the same counts, the results for `O=C(Cc1csc(N=Nc2c(O)[nH]c3ccccc23)n1)Nc1ccccc1` are more than 200 µM and 112 µM.
Turning to `O=C1N[C@@H](O)[C@@H]2ON=C(c3ccccc3)[C@H]12`, the EC50 is more than 1150 µM and the IC50 was more than 1150 µM.
For `CCOC(=O)C(Cc1ccccc1)NC(=O)c1ccc(N=NN(C)C)cc1` (stereo not drawn), the EC50 was more than 51.3 µM and the IC50 was more than 51.3 µM.
Turning to `CN(C)c1ccc(C(=C2C=CC(=[N+](C)C)C=C2)c2cc(S(=O)(=O)O)cc3cc(S(=O)(=O)O)ccc23)cc1`, the EC50 is more than 100 µM and the IC50 is more than 100 µM.
As to `N#C/C(=C\N1CC(=O)NC1=S)C(N)=O`, the EC50 was more than 200 µM and the IC50 is more than 200 µM.
In the case of `COC(=O)C(Cc1ccc2c(c1)CCCC2)Cc1cc2c(cc1C(O)OC)CCC2` (stereo not drawn), the EC50 is more than 200 µM and the IC50 came to 55 µM.
On the same counts, the results for `c1coc(-c2cc(-c3cc(-c4ccco4)on3)no2)c1` are more than 933 µM and 589 µM.
On the same counts, the results for `CCCCNC(=O)CCN(C(=O)O)S(=O)(=O)c1ccc(NC(=O)c2ccccc2)cc1` are more than 112 µM and more than 112 µM.
On the same counts, the results for `CNCCCNCCCSP(=O)(O)O` are more than 195 µM and 191 µM.
On to `CSCCC(N)C(=O)NCCNc1ccc(NCCNC(=O)C(N)CCSC)c2c1C(=O)c1ccccc1C2=O` (stereo not drawn), for which the EC50 was more than 151 µM and the IC50 was determined as 0.219 µM.
As for `COc1cc(/C=C2\CCOC2=O)ccc1OCc1ccccc1`, the EC50 is more than 32.4 µM and the IC50 is more than 32.4 µM.
In the case of `COC(=O)CC1CC2(C(=O)OC)c3[nH]c4ccccc4c3CCN2C1=O` (stereo not drawn), the EC50 is more than 224 µM and the IC50 is more than 224 µM.
For `C1CN2CCC1C1(C2)SSC2(CN3CCC2CC3)S1` (stereo not drawn), the EC50 is more than 200 µM and the IC50 was more than 200 µM.
In the case of `CN(C)COC(=S)SSSC(=S)OCN(C)C`, the EC50 is 0.195 µM and the IC50 is 0.724 µM.
On to `O=C(O[C@H]1[C@@H]2C=CO[C@@H](OC3OC(CO)C(O)C(O)C3O)[C@@H]2[C@@]2(CO)O[C@@H]12)c1ccc(O)c(O)c1` (stereo partly drawn), for which the result was inactive.
As to `COC(=O)NC(=O)c1cn(C2OC(CO)C(O)C2O)c(=O)[nH]c1=O` (stereo not drawn), the EC50 is more than 724 µM and the concentration for half-maximal inhibition (IC50) is more than 724 µM.
Take `CC1=C(C)SC(=C2Sc3nc(O)[nH]c(=O)c3S2)S1`: the EC50 was more than 200 µM and the IC50 was determined as 145 µM.
In the same order, the values of `COc1cc(-c2c(C)c(C)nc(OC)c2C#N)cc(OC)c1OC` are 22.9 µM and more than 100 µM.
On to `CCN(CC)CC(C(=O)Nc1c(C)cccc1C)/C(C)=N\NC(=S)NN` (stereo not drawn), for which the EC50 is more than 35.5 µM and the IC50 is more than 35.5 µM.
For `N#Cc1c(C(N)=O)ncn1Cc1ccccc1`, the outcome was inactive.
Turning to `CC/C(Cl)=N\OC(=O)Nc1ccccc1OC(F)(F)F`, the EC50 is more than 20 µM and the 50% inhibitory concentration (IC50) amounted to 3.16 µM.
With `CCNC(=S)Nc1c(C#N)c2n(c1C(=O)OCC)CCCCC2`, the EC50 was more than 200 µM and the IC50 is more than 200 µM.
For `CC12CCC(OC3OC(CO)C(OC4OC(CO)C(O)C(O)C4O)C(O)C3O)CC1CCC1C2CCC2(C)C(C3=CC(=O)OC3)CCC12O` (stereo not drawn), the EC50 is more than 20 µM and the IC50 came to 0.309 µM.
With `CSC(=Nc1ccc(Br)cc1)NC(=O)c1cc([N+](=O)[O-])cc([N+](=O)[O-])c1`, the EC50 is more than 200 µM and the IC50 amounted to 34.7 µM.
In the same order, the values of `Cc1ccc(/C=C2\Cc3c(C)cc(C)cc3C2=O)c(C(=O)O)c1` are more than 200 µM and 85.1 µM.
On the same counts, the results for `CCCC(O)c1cn(C(NC(=O)c2ccccc2)P(=O)(OCC)OCC)nn1` (stereo not drawn) are more than 200 µM and more than 200 µM.
In the case of `CC(C)COP(C)(=O)C(N)(C(F)(F)F)C(F)(F)F` (stereo not drawn), the EC50 was more than 200 µM and the IC50 was more than 200 µM.
Turning to `CCOC(=O)CN1C(=O)C(=O)N(c2ccc(OC)c3ccccc23)C1=O`, the EC50 was more than 200 µM and the IC50 is more than 200 µM.
Turning to `NC(CC(=O)O)C(=O)NC1Cc2ccccc2C1=O` (stereo not drawn), the EC50 was more than 200 µM and the IC50 was found to be 97.7 µM.
As to `CCC[CH2][Sn]1([CH2]CCC)[O]CC(C)[O]1` (stereo not drawn), the result was inactive.
